Data published in patent US12685315B2, “Herbicidal combination” (UPL do Brasil Industria e Comercio de Insumos Agropecuarios …, priority 2019, dated 2026).

Tests used:
[1] = test system: Cenchrus echinatus (CCHEC); experiment: Field trial of triple mixes of amicarbazone, pre and post-emergence weed control; assay type: in vivo
Description: (§1) Field trials were done to evaluate the efficacy and synergism of the triple mixes of amicarbazone with other herbicides for the control of weeds in pre and post-emergence application.
(§2) The composition of the present invention was applied. This test was performed for species of weeds: Grasses namely BRADC=Brachiaria decumbens, CCHEC=Cenchrus echinatus, ELEIN=Eleusine indica, TRCIN=Digitaria insularis and Broadleaves namely IAQGR=Ipomoea grandifolia, EPHHL=Euphorbia heterophylla, COMBE=Commelina benghalensis. Data were collected at various period after application of the composition to the soil and calculated.

[2] = test system: Brachiaria decumbens (BRADC); experiment: as above; assay type: in vivo
Description: as §1, §2

[3] = test system: Ipomoea grandifolia (IAQGR); experiment: Field trial of triple mixes of amicarbazone, pre-emergence weed control; assay type: in vivo
Description: as §1, §2

[4] = test system: Digitaria insularis; experiment: Field trial of triple mixes of amicarbazone, post-emergence weed control; assay type: in vivo; conditions: dose g ai/ha: Amicarbazone 75, S-metolachlor 300, Atrazine 250, mix 75 + 300 + 250
Description: as §1, §2

[5] = test system: yellow nutsedge; experiment: Field trial, post emergence, efficacy on yellow nutsedge (Blacksburg, VA); assay type: in vivo, Cyperus esculentus; conditions: 2-way mixes 0.5X, 3-way mix 0.33X; for Yellow nut sedge at 29 DAT (Percentage weed cover): dosage: singles 1X; for Yellow nut sedge at 29 DAT (Percentage Control): post emergence, dosage: singles 1 X
Description: A field trial was conducted to evaluate effectiveness of the combinations of three active ingredients according to the invention when used post emergence, at different rates, compared to industry standards—stand alone and 2 way mixture molecules for efficacy of yellow nutsedge. The active ingredient combination used in the trial was bentazon+halosulfuron+sulfentrazone. The trial was conducted in Blacksburg, VA and was initiated on June 6 under given protocol. The plots were in fallow area primarily covered with yellow nutsedge and tall fescue and were sprayed at 4 week intervals. (2 applications total). The application dosages of the herbicides, when used in isolation and when used in the combinations were as follows: […]

[6] = test system: Eleusine indica; experiment: Field trial of triple mixes of amicarbazone, pre and post-emergence weed control; assay type: in vivo; conditions: Table 8, dose g ai/ha: Amicarbazone 250, Sulfentrazone 150, Diuron 250, mix 250 + 150 + 250
Description: as §1, §2

[7] = test system: Euphorbia heterophylla; experiment: Field trial of triple mixes of amicarbazone, pre-emergence weed control; assay type: in vivo; conditions: dose g ai/ha: Amicarbazone 250, Sulfentrazone 150, Diuron 250, mix 250 + 150 + 250
Description: as §1, §2

[8] = Table 5, Post-Emergence, 21 DAA, dose g ai/ha: Amicarbazone 250, Clomazone 250, Diuron 250, mix 250 + 250 + 250
[9] = Table 5, Post-Emergence, 28 DAA, dose g ai/ha: Amicarbazone 250, Clomazone 250, Diuron 250, mix 250 + 250 + 250
[10] = Table 5, Post-Emergence, 35 DAA, dose g ai/ha: Amicarbazone 250, Clomazone 250, Diuron 250, mix 250 + 250 + 250
[11] = Table 5, Pre-Emergence, 21 DAA, dose g ai/ha: Amicarbazone 250, Clomazone 250, Diuron 250, mix 250 + 250 + 250
[12] = Table 5, Pre-Emergence, 28 DAA, dose g ai/ha: Amicarbazone 250, Clomazone 250, Diuron 250, mix 250 + 250 + 250
[13] = Table 5, Pre-Emergence, 35 DAA, dose g ai/ha: Amicarbazone 250, Clomazone 250, Diuron 250, mix 250 + 250 + 250
[14] = Table 4, 7 DAA, dose g ai/ha: Amicarbazone 250, Clomazone 250, Diuron 250, mix 250 + 250 + 250
[15] = Table 4, 14 DAA, dose g ai/ha: Amicarbazone 250, Clomazone 250, Diuron 250, mix 250 + 250 + 250
[16] = Table 4, 28 DAA, dose g ai/ha: Amicarbazone 250, Clomazone 250, Diuron 250, mix 250 + 250 + 250

CCNc1nc(Cl)nc(NC(C)C)n1 [Atrazine]
% Control ([1]; Table 2, Post-Emergence, 7 DAA, dose g ai/ha: Amicarbazone 75, Isoxaflutole 15, Atrazine 250, mix 75 + 15 + 250): 47.5%
% Control ([1]; Table 2, Post-Emergence, 28 DAA, dose g ai/ha: Amicarbazone 75, Isoxaflutole 15, Atrazine 250, mix 75 + 15 + 250): 26.3%
% Control ([1]; Table 2, Post-Emergence, 35 DAA, dose g ai/ha: Amicarbazone 75, Isoxaflutole 15, Atrazine 250, mix 75 + 15 + 250): 23.8%
% Control ([2]; Table 1, Post-Emergence, 7 DAA, dose g ai/ha: Amicarbazone 75, Isoxaflutole 15, Atrazine 250, mix 75 + 15 + 250): 37.5%
% Control ([2]; Table 1, Post-Emergence, 21 DAA, dose g ai/ha: Amicarbazone 75, Isoxaflutole 15, Atrazine 250, mix 75 + 15 + 250): 21.3%
% Control ([2]; Table 1, Post-Emergence, 28 DAA, dose g ai/ha: Amicarbazone 75, Isoxaflutole 15, Atrazine 250, mix 75 + 15 + 250): 23.8%
% Control ([2]; Table 1, Pre-Emergence, 7 DAA, dose g ai/ha: Amicarbazone 75, Isoxaflutole 15, Atrazine 250, mix 75 + 15 + 250): 0.0%
% Control ([2]; Table 1, Pre-Emergence, 21 DAA, dose g ai/ha: Amicarbazone 75, Isoxaflutole 15, Atrazine 250, mix 75 + 15 + 250): 0.0%
% Control ([2]; Table 1, Pre-Emergence, 28 DAA, dose g ai/ha: Amicarbazone 75, Isoxaflutole 15, Atrazine 250, mix 75 + 15 + 250): 0.0%
% Control ([3]; Table 3, 14 DAA, dose g ai/ha: Amicarbazone 75, Isoxaflutole 15, Atrazine 250, mix 75 + 15 + 250): 0.0%
% Control ([3]; Table 3, 21 DAA, dose g ai/ha: Amicarbazone 75, Isoxaflutole 15, Atrazine 250, mix 75 + 15 + 250): 0.0%
% Control ([3]; Table 3, 28 DAA, dose g ai/ha: Amicarbazone 75, Isoxaflutole 15, Atrazine 250, mix 75 + 15 + 250): 0.0%
% Control ([4]; Table 9, 21 DAA): 21.3%
% Control ([4]; Table 9, 28 DAA): 13.8%
% Control ([4]; Table 9, 35 DAA): 7.5%

CC(C)N1C(=O)c2ccccc2NS1(=O)=O [Bentazone]
Yellow nut sedge at 29 DAT (Percentage weed cover) ([5]; 05/07, untreated 59): 10%
Yellow nut sedge at 29 DAT (Percentage Control) ([5]; 05/07): 76%
Yellow nut sedge at 29 DAT (Percentage weed cover) ([5]; 13/06, untreated 50): 40%
Yellow nut sedge at 29 DAT (Percentage Control) ([5]; 13/06): 65%
Yellow nut sedge at 29 DAT (Percentage weed cover) ([5]; 20/6, untreated 49): 8%
Yellow nut sedge at 29 DAT (Percentage Control) ([5]; 20/6): 75%

CC1(C)CON(Cc2ccccc2Cl)C1=O [Clomazone]
% Control [2, 8]: 71.3%
% Control [2, 9]: 63.8%
% Control [2, 10]: 61.3%
% Control [2, 11]: 89.5%
% Control [2, 12]: 86.5%
% Control [2, 13]: 86.3%
% Control [3, 14]: 57.5%
% Control [3, 15]: 41.3%
% Control [3, 16]: 39.5%

CN(C)C(=O)Nc1ccc(Cl)c(Cl)c1 [Diuron]
% Control ([6]; Post-Emergence, 14 DAA): 53.8%
% Control ([6]; Post-Emergence, 21 DAA): 35.0%
% Control ([6]; Post-Emergence, 28 DAA): 30.0%
% Control ([6]; Pre-Emergence, 14 DAA): 0.0%
% Control ([6]; Pre-Emergence, 21 DAA): 0.0%
% Control ([6]; Pre-Emergence, 28 DAA): 0.0%
% Control ([1]; Table 6, Post-Emergence, 21 DAA, dose g ai/ha: Amicarbazone 250, Sulfentrazone 150, Diuron 250, mix 250 + 150 + 250): 38.8%
% Control ([1]; Table 6, Post-Emergence, 28 DAA, dose g ai/ha: Amicarbazone 250, Sulfentrazone 150, Diuron 250, mix 250 + 150 + 250): 35.0%
% Control ([1]; Table 6, Post-Emergence, 35 DAA, dose g ai/ha: Amicarbazone 250, Sulfentrazone 150, Diuron 250, mix 250 + 150 + 250): 28.8%
% Control ([1]; Table 6, Pre-Emergence, 21 DAA, dose g ai/ha: Amicarbazone 250, Sulfentrazone 150, Diuron 250, mix 250 + 150 + 250): 0.0%
% Control ([1]; Table 6, Pre-Emergence, 28 DAA, dose g ai/ha: Amicarbazone 250, Sulfentrazone 150, Diuron 250, mix 250 + 150 + 250): 0.0%
% Control ([1]; Table 6, Pre-Emergence, 35 DAA, dose g ai/ha: Amicarbazone 250, Sulfentrazone 150, Diuron 250, mix 250 + 150 + 250): 0.0%
% Control [2, 8]: 81.3%
% Control [2, 9]: 75.0%
% Control [2, 10]: 76.3%
% Control [2, 11]: 0.0%
% Control [2, 12]: 0.0%
% Control [2, 13]: 0.0%
% Control [3, 14]: 10.0%
% Control [3, 15]: 0.0%
% Control [3, 16]: 0.0%
% Control ([7]; Table 7, 7 DAA): 0.0%
% Control ([7]; Table 7, 14 DAA): 0.0%
% Control ([7]; Table 7, 21 DAA): 0.0%
